Data: ChEMBL document CHEMBL4387764, “Structure-activity relationship study of thiazolyl-hydroxamate derivatives as selective histone deacetylase 6 inhibitors” (Bioorg Med Chem, 2019)

Tests used:
in vitro [1] = conditions: human, liver microsomes
in vitro [2] = conditions: CD-1, mouse, liver microsomes
in vitro [3] = conditions: CD-1, mouse, liver microsomes; remark: listed apart in the source
in vitro [4] = conditions: CD-1, mouse, liver microsomes; remark: listed apart in the source
in vitro [5] = conditions: human, liver microsomes; remark: listed apart in the source
in vitro [6] = conditions: CD-1, mouse, liver microsomes; remark: listed apart in the source
in vitro [7] = conditions: human, liver microsomes; remark: listed apart in the source
in vitro [8] = conditions: CD-1, mouse, liver microsomes; remark: listed apart in the source
in vitro [9] = conditions: CD-1, mouse, liver microsomes; remark: listed apart in the source
in vitro [10] = conditions: human, liver microsomes; remark: listed apart in the source
in vitro [11] = conditions: human, liver microsomes; remark: listed apart in the source
in vitro [12] = conditions: human, liver microsomes; remark: listed apart in the source

## O=C(CCc1csc(/C=C/c2ccc(F)cc2)n1)NO
In vitro [1]
  remaining at 5 min, 1 µM: 105%
In vitro [2]
  remaining at 0 h, 1 µM: 100%
In vitro [3]
  remaining at 0.25 h, 1 µM: 68.6%
In vitro [4]
  remaining at 0.5 h, 1 µM: 25.2%
In vitro [5]
  remaining at 0 h, 1 µM: 106%
In vitro [6]
  remaining at 0.5 h, 1 µM: 95.8%
In vitro [7]
  remaining at 0 h, 1 µM: 100%
In vitro [8]
  remaining at 0 h, 1 µM: 107%
In vitro [9]
  remaining at 5 min, 1 µM: 99.8%
In vitro [10]
  remaining at 0.5 h, 1 µM: 112%
In vitro [11]
  remaining at 0.25 h, 1 µM: 103%
In vitro [12]
  remaining at 0.5 h, 1 µM: 94.6%
